Literature values as cited in patent publication US9193713B2, “Compounds as cannabinoid receptor ligands” (priority 2007, dated 2015).

Assays:
[1] = tested on: animal models; conditions: acute thermal, persistent, inflammatory and neuropathic pain models
[2] = tested on: osteoclast
[3] = tested on: mice; conditions: model for post-menopausal osteoporosis
[4] = tested on: rat; conditions: rat formalin model of persistent pain
[5] = tested on: rodent; conditions: neuropathic, incisional, chronic and acute inflammatory pain
[6] = tested on: microglial; conditions: in vitro; effects blocked by SR144528
[7] = tested on: apolipoprotein E knockout mice; conditions: low doses; effects inhibited by SR144528

Molecule: CN1CCCCC1Cn1cc(C(=O)c2cc([N+](=O)[O-])ccc2I)c2ccccc21 (stereo not shown) [AM-1241]
- analgesic efficacy [1]: robust analgesic efficacy

Molecule: SR144528
- effect on osteoclast activity [2]: inhibit osteoclast activity
- effect on ovariectomy-induced bone loss [3]: reverse ovariectomy-induced bone loss

Molecule: CCCCCCC(C)(C)c1cc(OC)c([C@@H]2C=C(CO)[C@@H]3C[C@H]2C3(C)C)c(OC)c1 [HU-308]
- antinociceptive response [4]: elicits an antinociceptive response

Molecule: COc1ccc2c(c1)c(CCN1CCOCC1)c(C)n2C(=O)c1cccc(Cl)c1Cl [GW405833]
- efficacy in pain models [5]: efficacious

Molecule: CCCC(C)(C)c1ccc2c(c1)OC(C)(C)[C@@H]1CC=C(C)C[C@@H]21 [JWH-133]
- effect on β-amyloid-induced microglial activation and neurotoxicity [6]: abrogated β-amyloid-induced microglial activation and neurotoxicity

Molecule: (−)-Δ^9-Tetrahydrocannabinol [THC]
- effect on progression of atherosclerotic lesions [7]: slowed the progression of atherosclerotic lesions
